Data reported in patent US11089783B2, “2-(het)aryl-substituted fused heterocycle derivatives as pesticides” (Bayer Aktiengesellschaft, priority 2017, dated 2021).

How the values were obtained:
Type in all cases: in vivo
Lucilia cuprina = Lucilia cuprina test; conditions: 48 h, L1 larvae, after 2 days, read-out: efficacy (kill)
How it was run: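 About 20 L1 larvae of Lucilia cuprina placed on minced horsemeat containing compound (DMSO stock diluted in water to test concentration). Kill (%) scored after 2 days; 100% = all larvae dead, 0% = none dead.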

Musca domestica = Musca domestica test; conditions: 100 ppm, adult houseflies, after 2 days
Experimental: Solvent: dimethyl sulfoxide To produce a suitable active ingredient formulation, 10 mg of active ingredient are mixed with 0.5 ml of dimethyl sulfoxide, and the concentrate is diluted with water to the desired concentration. Vessels containing a sponge treated with sugar solution and the active ingredient formulation of the desired concentration are populated with 10 adult houseflies (Musca domestica). After 2 days, the kill in % is determined. 100% means that all of the flies have been killed; 0% means that none of the flies have been killed.

Meloidogyne incognita [1] = experiment: Meloidogyne incognita test (MELGIN); conditions: 20 ppm, 14 days (14 dat)
How it was run: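 Sand with lettuce seeds, M. incognita egg/larvae suspension and aqueous dilution of compound concentrate. Nematicidal efficacy scored from gall (root-knot) formation after 14 days or the desired time, as % relative to untreated control (100% = no galls; 0% = as control).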

Myzus persicae [2] = experiment: Myzus persicae oral test; conditions: 120 h, after 5 days, read-out: efficacy
How it was run: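 Compound solution in IPL41 insect medium with sugar was sealed under parafilm, through which a mixed population of green peach aphids fed. Mortality was scored after 5 days as % efficacy, with 100% meaning all aphids killed.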

Myzus persicae [3] = experiment: Myzus persicae spray test (MYZUPE), Chinese cabbage leaf discs
How it was run: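 Leaf discs of Chinese cabbage carrying all stages of green peach aphid were sprayed with compound formulated in solvent and diluted with water containing emulsifier at 1000 ppm. Percent efficacy (100% = all aphids dead) was scored after 5 days or after the desired time.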

Phaedon cochleariae [4] = experiment: Phaedon cochleariae spray test (PHAECO), Chinese cabbage leaf discs
How it was run: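 Chinese cabbage (Brassica pekinensis) leaf discs sprayed with compound in water with 1000 ppm emulsifier, then after drying infested with Phaedon cochleariae larvae. Efficacy (% larvae killed) scored after 7 days or the chosen interval.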

Aphis gossypii = Aphis gossypii spray test (APHIGO), cotton plants; conditions: 6 dat
How it was run: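 Cotton plants (Gossypium hirsutum) heavily infested with cotton aphids were sprayed with the active ingredient formulated in emulsifier-containing water (1000 ppm emulsifier), with ammonium salt or penetrant added at 1000 ppm where required. After the set time, percent kill was determined, where 100% means all aphids dead.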

Nilaparvata lugens = Nilaparvata lugens spray test (NILALU); conditions: 4 g/ha, 4 dat
Experimental: (§1) [table] To produce an appropriate active ingredient formulation, 1 part by weight of active ingredient is dissolved with the specified parts by weight of solvent and made up with water containing an emulsifier concentration of 1000 ppm until the desired concentration is attained. To produce further test concentrations, the mixture is diluted with emulsifier-containing water. If addition of ammonium salts or/and penetrants is required, these are each added to the preparation solution in a concentration of 1000 ppm. Rice plants (Oryza sativa) are sprayed with an active ingredient formulation of the desired concentration and then populated with larvae of the brown planthopper (Nilaparvata lugens). After the desired time, the efficacy in % is determined. 100% means that all planthoppers have been killed; 0% means that no planthoppers have been killed.

Tetranychus urticae = Tetranychus urticae spray test, OP-resistant (TETRUR); conditions: Tetranychus urticae, 144 h, TETRUR, 6 dat, read-out: % efficacy
Experimental: [table] To produce a suitable active ingredient formulation, 1 part by weight of active ingredient is dissolved with the specified parts by weight of solvent and made up to the desired concentration with water containing an emulsifier concentration of 1000 ppm. To produce further test concentrations, the formulation is diluted with emulsifier-containing water. Discs of bean leaves (Phaseolus vulgaris) infested with all stages of the greenhouse red spider mite (Tetranychus urticae) are sprayed with an active ingredient formulation of the desired concentration. After 6 days, the efficacy in % is determined. 100% means that all the spider mites have been killed; 0% means that no spider mites have been killed.

Phaedon cochleariae [5] = experiment: Phaedon cochleariae spray test (PHAECO S), cabbage leaves; conditions: Phaedon cochleariae, 168 h, 7 dat, read-out: % efficacy
Experimental: as §1, with “Cabbage leaves (Brassica oleracea)” for “Rice plants (Oryza sativa)”, “and” for “and then”, “mustard beetle (Phaedon cochleariae).” for “brown planthopper (Nilaparvata lugens).”, “kill” for “efficacy”, “beetle larvae” for “planthoppers”

Diabrotica balteata = Diabrotica balteata drench test (DIABBA); conditions: soil, 192 h, 8 dat, read-out: % efficacy
Experimental: [table] To produce an appropriate active ingredient formulation, 1 part by weight of active ingredient is mixed with the specified amounts of solvent and emulsifier and the concentrate is diluted to the desired concentration with water, it being necessary to take into account the volume of soil into which drenching is effected. It should be ensured that a concentration of 40 ppm of emulsifier in the soil is not exceeded. For production of further test concentrations, the mixture is diluted with water. 5 maize kernels in each case are sown into soil-filled pots (Zea mays) and, the next day, drenched with the active ingredient formulation of the desired concentration. After one day, about 25 L2 larvae of the banded cucumber beetle (Diabrotica balteata) were added. After 8 days, the efficacy in % is determined. 100% means that all 5 plants have germinated and grown; 0% means that no plant has emerged.

Meloidogyne incognita [6] = experiment: Meloidogyne incognita drench test (MELGIN D); conditions: soil, 504 h, 21 dat, read-out: % efficacy
Experimental: [table] To produce an appropriate active ingredient formulation, 1 part by weight of active ingredient is mixed with the specified amounts of solvent and emulsifier and the concentrate is diluted to the desired concentration with water, it being necessary to take into account the volume of soil into which drenching is effected. It should be ensured that a concentration of 20 ppm of emulsifier in the soil is not exceeded. For production of further test concentrations, the mixture is diluted with water. Pots filled with soil (loamy sand) are drenched with the active ingredient solution. An egg/larvae suspension of the southern root-knot nematode (Meloidogyne incognita) is added, and lettuce seeds are scattered over the soil surface and covered with quartz sand. The lettuce seeds germinate and the seedlings develop. The root-knots develop on the roots. After the desired time, the nematicidal effect is determined with reference to the root-knot formation in %. 100% means that no root-knots were found; 0% means that the number of root-knots on the treated plants corresponds to that on the untreated control.

Nezara viridula = Nezara viridula spray test (NEZARA / NEZAVI); conditions: Nezara viridula, 96 h, 4 g/ha, 4 dat, read-out: % efficacy
How it was run: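 Barley plants infested with Nezara viridula larvae were sprayed with active ingredient in solvent/emulsifier water (1000 ppm emulsifier; ammonium salt or penetrant at 1000 ppm if added). Efficacy scored as % mortality after the set time (100% = all bugs killed).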

Compound | pest or weed control at 100 ppm (Lucilia cuprina) [%] | efficacy (kill) (Musca domestica) [%] | efficacy (nematicidal, gall formation) (Meloidogyne incognita [1]) [%] | pest or weed control at 0.8 ppm (Myzus persicae [2]) [%] | % efficacy (Myzus persicae [3]; MYZUPE, 4 g/ha, 5 dat) [%] | pest or weed control at 100 g/ha (Myzus persicae [3]; Myzus persicae, foliar, 120 h, 100 g/ha, 5 days (5 dat), read-out: efficacy) [%] | efficacy (Phaedon cochleariae [4]; 100 g/ha, 7 days (7 dat)) [%] | % efficacy (Phaedon cochleariae [4]; PHAECO, 20 g/ha, 7 dat) [%] | % efficacy (Aphis gossypii; 0.8 ppm) [%] | % efficacy (Aphis gossypii; 4 ppm) [%] | % efficacy (Nilaparvata lugens) [%] | Emax at 20 g/ha (Tetranychus urticae; 20 g/ha) [%] | Emax at 100 g/ha (Tetranychus urticae; 100 g/ha) [%] | Emax at 4 ppm (Aphis gossypii; Aphis gossypii, 144 h, 4 ppm, read-out: % efficacy) [%] | Emax at 4 ppm (Phaedon cochleariae [5]; 4 ppm) [%] | Emax at 20 ppm (Phaedon cochleariae [5]; 20 ppm) [%] | Emax at 20 ppm (Diabrotica balteata) [%] | Emax at 1 ppm (Meloidogyne incognita [6]; 1 ppm) [%] | Emax at 2 ppm (Meloidogyne incognita [6]; 2 ppm) [%] | Emax at 4 g/ha (Nezara viridula) [%]
CCS(=O)(=O)c1ccc(C(=O)NC)nc1-c1nc2cc(C(F)(F)C(F)(F)F)nnc2n1C [Example I-01] | 100 | 100 | 90 | 100 | 90 | 90 | 100 | 67 | 70 | 100 | 100 |  |  |  |  |  |  |  |  | 
CCS(=O)(=O)c1ccc(NC(=O)NC)nc1-c1nc2cc(C(F)(F)F)nnc2n1C [reference compound] |  |  |  |  |  |  |  |  |  |  |  | 0 | 0 | 25 | 0 | 0 | 0 | 0 | 50 | 0
